# Test results as given in patent publication US4322416A, “10-Alkynyl steroids” (Merrell Dow Pharmaceuticals Inc., priority 1981, dated 1982).
# “Also recorded” adds a separate entry of the source.
# Assays:
# [1] = tested on: aromatase; conditions: microsomal enzyme preparations from human placenta; cited from earlier work
# [2] = tested on: estrogen production required for ovulation; conditions: rats; cited from earlier work
# [3] = biological target: T1, aromatase (microsomal fraction from human placenta) (Homo sapiens, UniProt P11511); test: biochemical; format: biochemical
# T1 construct: microsomal fraction isolated from human placenta; from tissue; host or cells: human placenta, microsomal fraction
# T1 sequence (P11511 1-503): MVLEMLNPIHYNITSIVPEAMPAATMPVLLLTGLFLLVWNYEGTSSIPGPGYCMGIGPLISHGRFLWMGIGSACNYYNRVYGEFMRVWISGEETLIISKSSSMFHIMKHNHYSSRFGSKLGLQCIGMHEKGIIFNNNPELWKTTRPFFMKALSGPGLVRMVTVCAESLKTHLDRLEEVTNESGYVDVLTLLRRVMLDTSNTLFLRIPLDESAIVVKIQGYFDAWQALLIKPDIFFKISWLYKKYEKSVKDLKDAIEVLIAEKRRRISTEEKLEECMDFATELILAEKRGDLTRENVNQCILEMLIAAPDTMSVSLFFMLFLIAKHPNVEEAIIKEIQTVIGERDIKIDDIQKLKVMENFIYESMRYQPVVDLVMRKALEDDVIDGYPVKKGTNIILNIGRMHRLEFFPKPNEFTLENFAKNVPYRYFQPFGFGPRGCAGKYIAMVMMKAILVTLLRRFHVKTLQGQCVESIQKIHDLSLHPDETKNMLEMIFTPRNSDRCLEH
# Procedure: (§1) The aromatase inhibitory action of the compounds of the invention can be determined using a radioenzymatic assay. An aromatase enzyme preparation from the microsomal fraction isolated from human placenta is employed.
# Assay buffer contains 100 mM KCl, 10 mM KH2 PO4, 10 mM dithiothreitol and 1 mM EDTA at pH 8.0. […] Aromatase requires NADPH as a cofactor, therefore a generating system is included which uses 0.5 mM NADP^+, 2.5 mM glucose-6-phosphate, and 1.0 unit/ml of glucose-6-phosphate dehydrogenase in assay buffer. The enzyme reaction is initiated by the addition of 700 μl of aromatase preparation, usually 50 μg microsomal protein per ml of assay buffer. These preparations are mixed using a vortex mixer and incubated for 30 minutes at 37° C. with 95% O2 :5% CO2 gas phase in a Dubinoff shaking incubator.
# The enzymatic reaction is terminated by the addition of CHCl3. After vortexing 20 seconds, aqueous/organic emulsions are dispersed and phase separation achieved following centrifugation at 600×g for 10 minutes. Duplicate 500 μl samples of the upper aqueous phase of each incubation sample are added to 10×75 mm culture tubes. […] The radioactivity of ^3 H2 O resulting from liberated 1β and 2β tritium atoms during the enzymatic reaction is determined by counting for 10 minutes in a liquid scintillation counter. […]
# [4] = biological target: T2, aromatase (aromatase preparation; microsomal protein) (Homo sapiens, UniProt P11511); test: biochemical
# T2 sequence (P11511 1-503): T1 sequence (P11511 1-503)
# Procedure: as §1
# In this assay, the inhibitor is preincubated with enzyme prior to assaying for enzyme activity in the presence of high substrate levels.
# In the time-dependent assay, an amount of the enzyme inhibitor in 100 μl of the assay buffer described above which will provide assay concentrations which are approximately one and ten times the IC50 values are added to 35 ml centrifuge tubes containing 600 μl of the NADPH generating system described above. The preincubation is started by the addition of 700 μl of aromatase preparation, usually 500-800 μg of microsomal protein per ml of assay buffer. These preparations are mixed using a vortex mixer and incubated for 0, 10, 20 or 40 minutes at 25° C. […] Following vortexing, the enzyme incubation is continued for 10 minutes before being terminated by the addition of chloroform. The amount of radioactivity in the aqueous fraction is determined by scintillation procedures. […] Therefore, the present enzyme inhibition is expressed as a percentage: [100 percent minus percent enzyme activity of inhibitor].
# Compounds which show time-dependent inhibition are then assayed to establish the inhibition constant, Ki, which is the apparent dissociation constant for the enzyme-inhibitor complex. This determination requires measurements at initial velocities of enzyme reaction. […] The enzyme half-life (t1/2) at these different inhibitor concentrations ([In]) is used to determine the Ki by the linear regression equation of the t1/2 vs. 1/[In]. The Ki is equivalent to the inhibitor concentration when t1/2 is equal to zero.
# [5] = tested on: implantation in mated rats; conditions: cited from earlier work
compound,measurement,setting,value
"CC(=O)OC1=C2CC[C@@H]3[C@H](CC[C@]4(C)C(=O)CC[C@@H]34)[C@@]2(C)CCC1=O [4-acetoxy-androst-4-ene-3,17-dione]",identified as aromatase inhibitor,[1],identified as aromatase inhibitors
same,preventing estrogen production required for ovulation,[2],effective in preventing estrogen production required for ovulation in rats
"C[C@]12CCC(=O)C(O)=C1CC[C@@H]1[C@@H]2CC[C@]2(C)C(=O)CC[C@@H]12 [4-hydroxy-androst-4-ene-3,17-dione]",identified as aromatase inhibitor,[1],identified as aromatase inhibitors
"C#CC[C@]12CCC(=O)C=C1CC[C@@H]1[C@@H]2CC[C@]2(C)C(=O)CC[C@@H]12 [10-(2-propynyl)estr-4-ene-3,17-dione]",IC50,[3],4.2 nM
same,enzyme affinity compared with known inhibitors,[3],greater enzyme affinity than other known inhibitors; also recorded: superior to known aromatase inhibitors
same,Ki,[4],8.9 nM
same,affinity for the enzyme site relative to that of the natural substrate testosterone,[4]; Ki vs. Km of testosterone,five times greater
same,irreversible binding to / irreversible inhibition of aromatase,"[4]; time-dependent inhibition, in words",irreversibly bound to the enzyme
"C[C@]12C=CC(=O)C=C1C=C[C@@H]1[C@@H]2CC[C@]2(C)C(=O)CC[C@@H]12 [Androsta-1,4,6-triene-3,17-dione]",identified as aromatase inhibitor,[1],identified as aromatase inhibitors
same,preventing implantation,[5],effective in preventing implantation in mated rats
